Entries after “also recorded” stand apart in the source; their conditions may differ.

For assay [1], the system named is DUX4. Nature of the assay: Immunofluorescent count of DUX4(+) nuclei in MHC(+) myotubes. The assay is classed as cell-based, human. The settings on record: for reduction in the number of nuclei expressing DUX4: FSHD1(2349) myotubes, KOSR medium. The procedure:
(§1) Primary human myoblasts were obtained by written informed consent through the Fields Center at the University of Rochester cell bank. Myoblasts were grown in F10 medium (INVITROGEN, Carlsbad, Calif.) supplemented with 20% fetal bovine serum (FBS; THERMO SCIENTIFIC (HYCLONE), and 50 U/50 μg penicillin/streptomycin (Pen-Strep; INVITROGEN), 10 ng bFGF (INVITROGEN), and 1 μM dexamethasone (SIGMA ALDRICH; St. Louis, […].)^9. Differentiation was induced using F10 medium supplemented with 1% equine serum and ITS supplement (insulin 0.1%, 0.000067% sodium selenite, 0.055% transferrin; INVITROGEN), or in DMEM:F12 (1:1) with 3.151 g/L glucose, 10 mM non-essential amino acids (INVITROGEN), […] sodium pyruvate, 20% knockout serum replacer (INVITROGEN, #10828010). Pharmacological inhibitor of glycogen synthase kinase-3-β (GSKi) was used at a final concentration of 3 μM (CHIR99021, STEMGENT; Cambridge. Mass.). Recombinant human Wnt3A was used at a concentration of 250 ng/mL, and confirmed to be bioactive prior to use in the assays described herein.
Immunofluorescent staining for DUX4 was performed using the E5-5 rabbit monoclonal antibody to the C-terminus of DUX4 ^34. Staining was performed by fixing the cells in 4% paraformaldehyde for 10 mins at room temperature, washing with PBS, permeablizing with 0.5% TritonX-100 in PBS for 10 mins at room temperature. The cells were then washed again in PBS and incubated overnight in a 1:10 dilution of the E5-5 antibody. The following day, the cells were washed 3×5 min in PBS and stained using a fluorescent conjugated secondary goat-anti rabbit secondary antibody for 1-2 hr at room temperature. […]
To quantify DUX4 expression, the Nikon Ti Eclipse microscope was programmed using the Nikon Elements software to take 36 pictures at random on a 35 mm culture dish, or to scan an entire well of a 384 well dish. These images were then manually inspected and DUX4 (+) nuclei counted. […] The average sum pixel intensity for single nuclei from each image was determined, and used to calculate the number of nuclei within clusters. […]

The next assay has as its system FSHD-myotubes. Kind of assay: DUX4-mediated myotube death / apoptosis in FSHD myotubes differentiated in KOSR medium. The note with it: for DUX4-mediated myotube death: FSHD-myotubes, KOSR differentiation medium, data not shown. The assay is classed as cell-based, human. The procedure:
Primary human myoblasts were obtained by written informed consent through the Fields Center at the University of Rochester cell bank. […] Pharmacological inhibitor of glycogen synthase kinase-3-β (GSKi) was used at a final concentration of 3 μM (CHIR99021, STEMGENT; Cambridge. Mass.).
Immunofluorescent staining for DUX4 was performed using the E5-5 rabbit monoclonal antibody to the C-terminus of DUX4 ^34. Staining was performed by fixing the cells in 4% paraformaldehyde for 10 mins at room temperature, washing with PBS, permeablizing with 0.5% TritonX-100 in PBS for 10 mins at room temperature. The cells were then washed again in PBS and incubated overnight in a 1:10 dilution of the E5-5 antibody. The following day, the cells were washed 3×5 min in PBS and stained using a fluorescent conjugated secondary goat-anti rabbit secondary antibody for 1-2 hr at room temperature. Following a final wash, the cells were counterstained with 4′,6-Diamidino-2-phenylindole dihydrochloride (DAPI, SIGMA ALDRICH), and visualized by microscopy using UV illumination.
To quantify DUX4 expression, the Nikon Ti Eclipse microscope was programmed using the Nikon Elements software to take 36 pictures at random on a 35 mm culture dish, or to scan an entire well of a 384 well dish. These images were then manually inspected and DUX4 (+) nuclei counted. To determine the myotube index, the Nikon Elements software was used to create binary masks of the DAPI and MHC channels for each image. This technique created a border around each nucleus or cluster of nuclei which could then be used to measure the sum pixel intensity from the DAPI channel. The average sum pixel intensity for single nuclei from each image was determined, and used to calculate the number of nuclei within clusters. By intersecting the binary images from the DAPI and MHC channels the inventors could exclude the nuclei that were outside of MHC(+) myotubes, and create a myotube fusion index. The myotube fusion index was compared to manual counts to confirm accuracy of the calculations.

The next assay relates to DUX4 promoter. Kind of assay: D4Z4(FFL) DUX4 promoter luciferase reporter in C2C12 cells. The assay is classed as cell-based. The settings on record: 3 μM GSKi, vs DMSO. The procedure:
The D4Z4 regulatory region controlling the expression of DUX4^31 was subcloned upstream of the open reading from of the pGL3-basic vector (pGL3) to make D4Z4(FFL). The D4Z4(FFL) was excised using XbaI/SpeI restriction enzymes and ligated into the SpeI site of a 3rd generation lentiviral vector multiple cloning site (pRRL-sinc-PPT-MCS; Gift from Dr. Grant Trobridge).
Cells transduced with D4Z4(FFL) lentivirus vector were seeded in a 96 well dish. Thirty minutes prior to the assay, Hoescht Dye was added to the cell culture medium to a final concentration of 5 μm, and 30 min later the plate was analyzed for DNA content by measuring fluorescence at 355 nm using a multiwell plate reader (ENVISION; PERKIN-ELMER). An equal volume of STEADY-GLO (PROMEGA) was added to each well, and transferred to an opaque dish. Luminescence was read using the plate reader, and normalized to DNA content for each well.
(In a reporter assay the amount or activity of a reporter protein is the signal.)

In assay [2] the test system is DUX4. Kind of assay: RT PCR of DUX4 transcripts in primary human cells. In kind it is cell-based. The note with it: normal(NR201) and FSHD2(2305) primary human cells, 3 μM GSKi. Here is the method:
as §1
RNA was isolated by TRIZOL extraction according to the manufacturers protocol (INVITROGEN), except that the final ethanol precipitate was resuspended 1×DNase I buffer and 5 U DNase I for 15 mins and the RNA was extracted with phenol/chloroform and precipitated with ethanol using RNase-free glycogen (NEW ENGLAND BIOLABS) as a carrier. […]

Another assay has as its system FSHD myotubes. Nature of the assay: Cell viability assay (ATP content normalized to DNA content). In kind it is cell-based, human. The note with it: cultured in the absence or presence of GSKi. The procedure:
Hoescht Dye was added to cells in culture for 30 minutes at a final concentration of 5 μM. Following detachment with trypsin a 50 μL aliquot of the cells was assayed for fluorescence at 355 nm to give an absorbance value for DNA content. An equal volume of CELL TITRE GLO (PROMEGA) was then added to the aliquot, and luminescence was measured. The luminescent value was normalized to the absorbance value for DNA content.

For `C[C@@H](N)[C@H]1CC[C@H](C(=O)Nc2ccncc2)CC1` [Y-27632], in the assay on DUX4 [1] (10 μM Y-27632), the “reduction in the number of nuclei expressing DUX4” value is listed as 10 fold. Also, in the assay with FSHD-myotubes, the DUX4-mediated myotube death entry was “also prevented DUX4-mediated myotube death”.

As to `O=C(NCc1ccccc1)c1csc(Nc2ccncn2)n1` [Thiazovivin], the “reduction in the number of nuclei expressing DUX4” value in the assay with DUX4 [1] (0.5 μM Thiazovivin) worked out at 10 fold. Besides, in the assay on FSHD-myotubes, the DUX4-mediated myotube death entry is recorded as “also prevented DUX4-mediated myotube death”. For `O=C1O[C@H]([C@@H](O)CO)C(O)=C1O` [ascorbic acid], the DUX4-mediated myotube death entry in the assay on FSHD-myotubes is listed as “observed DUX4-dependent myotube apoptosis despite treatments”. For `Cc1c[nH]c(-c2cnc(NCCNc3ccc(C#N)cn3)nc2-c2ccc(Cl)cc2Cl)n1` [GSKi], in the assay on DUX4 promoter, the “upregulation of DUX4 expression during myotube formation (luciferase activity normalized to DNA content)” value is on record as “reduced the characteristic upregulation of DUX4 expression”. In the assay on DUX4 [1] (FSHD myoblasts differentiated in the presence of 3 μM GSKi, three cell lines), the “reduction in the number of DUX4(+) nuclei in myotubes” value is “greater than 50%”. Moreover, the myotube apoptosis entry in the assay on FSHD-myotubes (FSHD myotubes, GSKi treatment alone (3 μM)) was “did not prevent myotube apoptosis; also recorded: insufficient to prevent apoptosis”. The “upregulation of DUX4 expression during myotube formation (DUX4 transcripts)” value in the assay on DUX4 [2] is recorded as “reduced the characteristic upregulation of DUX4 expression”. Also, the “ATP content of myoblasts or myotubes” value in the assay with FSHD myotubes was “No difference”. Consider `OCCS` [β-mercapto-ethanol], for which the DUX4-mediated myotube death entry with FSHD-myotubes is “observed DUX4-dependent myotube apoptosis despite treatments”.

Regarding Arsenic trioxide, the DUX4-mediated myotube death entry in the assay on FSHD-myotubes is recorded as “efficiently prevented DUX4-mediated myotube death”. Regarding `Cc1ccc(C(=O)Cn2c3c(sc2=N)CCCC3)cc1` [pifithrin-α], the DUX4-mediated myotube death entry with FSHD-myotubes is “efficiently prevented DUX4-mediated myotube death”.

(Values after patent US20150301067A1, “METHODS AND ASSAYS FOR FACIOSCAPULOHUMERAL MUSCULAR DYSTROPHY” (UNIVERSITY OF WASHINGTON THROUGH ITS CENTER FOR …, priority 2012, published 2015).)
